Data: patent US20260217698A1 (BEYANG THERAPEUTICS CO., LTD., priority 2022, published 2026)
In brackets after ≈: the same amount, converted by molar mass.

Tests used:
[1] = target: T1, VEGFR1 (Homo sapiens, UniProt P17948); test: Kinase inhibition, Mobility Shift Assay/IMAP, VEGFR1; format: biochemical
T1 construct: purchased Invitrogen PR6731B
In short: (§1)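 Substrate conversion (phosphorylated vs non-phosphorylated) read by mobility shift on Caliper EZ Reader II and converted to % inhibition relative to no-enzyme and DMSO controls. IC50 fitted from % inhibition versus log compound concentration.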

[2] = target: T2, VEGFR3 (Homo sapiens, UniProt P35916); test: Kinase inhibition, Mobility Shift Assay/IMAP, VEGFR3; format: biochemical
T2 construct: purchased Invitrogen PV4129
In short: as §1

[3] = target: T3, TIE2 (Homo sapiens, UniProt Q02763); test: Kinase inhibition, Mobility Shift Assay/IMAP, TIE2; format: biochemical
T3 construct: purchased BPS 40270
In short: as §1

[4] = target: T4, EGFR (Homo sapiens, UniProt P00533); test: Kinase inhibition, Mobility Shift Assay/IMAP, EGFR; format: biochemical
T4 construct: purchased Carna 08-115
In short: as §1

[5] = Solubility test in buffer, LC-MS; format: physicochemical; details: aqueous buffer, thermodynamic from solid, room temperature, shaking 8 h, pH not given (method: pH 2.0, 6.5, 7.4)
Method: Accurately weigh 3 portions of about 2 mg of the compound, and add appropriate volumes of buffers with the pHs of 2.0, 6.5, and 7.4 respectively to obtain a solution with a concentration of 2 mg/mL. After sonication for 10 min, fix them on a shaker and shaking for 8 h at room temperature. After shaking, sonicate for 10 min and centrifuge for 15 min at 13,000 rpm. Pipette 0.1 mL of supernatant into a new tube, shake and rinse it with 5 mL, and discard the liquid. Transfer 0.5 mL of the supernatant again to a new tube, centrifuge it for 15 min at 13,000 rpm, then collect the supernatant (if necessary, dilute with water) and analyze it by LC-MS. The sample concentrations at 3~5 points are subjected to fitting and reticle for quantification.

[6] = system: melanin; test: Binding capacity of compounds to melanin; format: in vitro ADME, cuttlefish (Sepia officinalis); details: cuttlefish (Sepia officinalis), melanin suspension (1 mg/mL); 1 mg/mL melanin in PBS pH 7.4, 2 μM compound, 2 h at 37° C.; read-out: Fu % (percentage of free drug)
In short: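 Compound (2 μM final) incubated with washed Sepia melanin (1 mg/mL, PBS pH 7.4) 2 h at 37° C with shaking; PBS with 0.1% BSA served as blank. Supernatants quantified by LC-MS/MS; bound fraction Fb derived from melanin versus blank concentration.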

[7] = target: T5, VEGFR2 (Homo sapiens, UniProt P35968); test: Kinase inhibition, Mobility Shift Assay/IMAP, VEGFR2; format: biochemical; design: purchased Carna 08-191
In short: as §1
Target sequence in this assay (P35968 790-1356 limits assumed): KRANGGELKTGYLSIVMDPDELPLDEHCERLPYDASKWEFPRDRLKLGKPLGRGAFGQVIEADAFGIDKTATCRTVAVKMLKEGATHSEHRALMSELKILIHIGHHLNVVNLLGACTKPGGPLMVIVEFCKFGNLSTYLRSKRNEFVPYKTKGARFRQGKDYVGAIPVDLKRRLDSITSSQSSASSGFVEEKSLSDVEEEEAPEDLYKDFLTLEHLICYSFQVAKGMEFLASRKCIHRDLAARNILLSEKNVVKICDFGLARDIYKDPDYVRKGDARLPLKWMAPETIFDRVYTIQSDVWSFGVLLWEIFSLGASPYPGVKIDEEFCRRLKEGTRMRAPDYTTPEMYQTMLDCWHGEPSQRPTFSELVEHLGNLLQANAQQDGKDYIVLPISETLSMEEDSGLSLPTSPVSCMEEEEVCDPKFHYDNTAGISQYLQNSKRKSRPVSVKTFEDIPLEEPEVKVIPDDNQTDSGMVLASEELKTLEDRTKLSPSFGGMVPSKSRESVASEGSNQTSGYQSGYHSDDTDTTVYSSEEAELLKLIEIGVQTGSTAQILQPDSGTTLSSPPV

[8] = target: T5, VEGFR2; test: Inhibition of VEGF-induced VEGFR2 autophosphorylation (pVEGFR2) in HUVEC cells, ELISA; format: cell-based; design: endogenous in cells; host or cells: HUVEC; details: 50 ng/mL human VEGF, compound 1 h
Text: Vascular endothelial growth factor receptor 2 (VEGFR2) is a primary receptor for VEGF-induced endothelial cell signaling. After ligand binding, VEGFR2 is autophosphorylated and activated. The main function of signaling from VEGFR2 is to induce vascularization during development and after tissue injury, and to bypass blocked blood vessels. Pathologically, VEGF and VEGFR2 are involved in tumor angiogenesis and vascular leakage. They are considered to be main participants in many different cancers and ocular diseases that accompany pathological neovascularization. This assay measured the ability of the compounds to inhibit VEGF-induced VEGFR2 autophosphorylation (pVEGFR2) in HUVEC cells by using ELISA.
Culture cells in a cell culture flask to reach a fusion degree of 60%-80% before cell inoculation. Dilute the cell suspension to […] with a pre-warmed complete medium. Add 80 μL of the cell suspension to all wells of a 96-well cell plate (Corning-3599); and incubate the plate overnight at 37° C. in the presence of 5% CO2. Dissolve the compound powder to 10 mM with DMSO and store it in a nitrogen cabinet. Compound dilution plate: Add a reference compound Ponatinib or a compound to be tested to a 96 V-well plate (Axygen-WIPP 2280) at concentrations achieved as follows: performing 3-fold gradient dilution starting from 5 mM (5 μL of 10 mM compound solution plus 5 μL of DMSO) for a total of 8 concentration points. […] Transfer 20 μL of the diluted compound from the intermediate plate to a cell plate. Then, incubate the cell plate for 1 h at 37° C. in the presence of 5% CO2. After the compound was treated for 1 h, add 25 μL of 250 ng/ml human VEGF at a final concentration of 50 ng/mL to a 96-well plate; and incubate the plate for 5 min at 37° C. in the presence of 5% CO2, centrifuge the plate for 10 min at 3,000 rpm, remove the medium and wash the cells once with 300 μL of pre-chilled DPBS per well. Then, centrifuge the plate for 10 min at 4,000 rpm, remove DPBS, and add 110 μL of pre-chilled 1× cell lysis buffer per well to the 96-well plate. Shake the plate for 40 min at 4° C. Then, freeze the plate in a refrigerator at −80° C. On the next day, remove the plate from the refrigerator at −80° C., thaw the plate, centrifuge the plate for 10 min at 3500 rpm, and add 100 μL of the supernatant per well to an ELISA plate. Seal the plate and incubate it for 2 h at 37° C. Wash the wells 4 times with 1× wash buffer. Add 100 μL of recombinant detection antibody per well. Seal the plate, incubate the plate for 1 h at 37° C., and repeat the step of plate washing. Add 100 μL of secondary antibody per well. Seal the plate, incubate the plate for 30 min at 37° C., and repeat the step of plate washing. Add 100 μL of TMB (protected from light) per well. Seal the plate, incubate the plate for 30 min at 37° C., and add 100 μL of the stop solution per well. Gently shake for 30 sec, measure the absorbance with a SpectraMax® 340 PC 384 Absorbance Microplate Reader within 30 min, and read an optical density value at 450 nm. Conduct data analysis using XL Fit software:
Conduct curve fitting using the 4 Parameter Logistic Model or Sigmoidal Dose-Response Model to obtain IC50 values.
X indicates the log value of compound concentration, Y indicates the inhibition rate (% inhibition), Top indicates the readout of the negative control wells, and Bottom indicates the readout of the positive control well.
Target sequence in this assay (P35968 20-1356): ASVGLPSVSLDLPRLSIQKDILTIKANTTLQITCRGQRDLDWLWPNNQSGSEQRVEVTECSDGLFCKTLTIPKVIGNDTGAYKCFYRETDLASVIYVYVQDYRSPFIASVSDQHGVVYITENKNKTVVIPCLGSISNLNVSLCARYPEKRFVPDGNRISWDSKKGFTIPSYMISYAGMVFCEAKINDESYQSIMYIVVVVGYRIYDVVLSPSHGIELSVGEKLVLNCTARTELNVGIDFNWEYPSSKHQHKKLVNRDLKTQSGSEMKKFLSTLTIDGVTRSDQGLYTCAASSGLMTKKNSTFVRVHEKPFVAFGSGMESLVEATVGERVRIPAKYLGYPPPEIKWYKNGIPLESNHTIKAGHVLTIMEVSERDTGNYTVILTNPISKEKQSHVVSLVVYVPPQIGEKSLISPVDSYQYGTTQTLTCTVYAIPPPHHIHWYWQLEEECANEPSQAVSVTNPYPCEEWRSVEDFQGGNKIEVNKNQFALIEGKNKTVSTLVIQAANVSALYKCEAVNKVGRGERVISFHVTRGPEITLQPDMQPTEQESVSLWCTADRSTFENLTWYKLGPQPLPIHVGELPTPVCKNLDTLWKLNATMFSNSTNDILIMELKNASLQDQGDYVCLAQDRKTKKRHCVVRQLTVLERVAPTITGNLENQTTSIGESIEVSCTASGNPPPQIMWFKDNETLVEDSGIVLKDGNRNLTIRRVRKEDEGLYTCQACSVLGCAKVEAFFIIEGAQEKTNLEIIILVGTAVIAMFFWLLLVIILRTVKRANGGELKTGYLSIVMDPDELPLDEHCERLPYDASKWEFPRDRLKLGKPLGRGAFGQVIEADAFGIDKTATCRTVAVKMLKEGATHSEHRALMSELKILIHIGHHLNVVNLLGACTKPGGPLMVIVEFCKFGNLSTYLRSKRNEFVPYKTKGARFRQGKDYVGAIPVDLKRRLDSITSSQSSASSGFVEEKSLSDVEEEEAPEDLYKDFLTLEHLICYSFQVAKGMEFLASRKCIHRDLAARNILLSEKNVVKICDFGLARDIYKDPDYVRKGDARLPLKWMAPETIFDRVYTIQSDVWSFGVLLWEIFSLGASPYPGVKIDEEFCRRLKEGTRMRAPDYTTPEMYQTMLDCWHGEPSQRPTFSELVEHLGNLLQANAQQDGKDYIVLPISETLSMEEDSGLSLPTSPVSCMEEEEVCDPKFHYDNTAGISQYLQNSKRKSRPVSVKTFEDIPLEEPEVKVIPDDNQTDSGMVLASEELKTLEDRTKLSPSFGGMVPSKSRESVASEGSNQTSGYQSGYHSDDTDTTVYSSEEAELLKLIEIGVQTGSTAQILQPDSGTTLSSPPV

[9] = system: HUVEC cells; test: Inhibition of VEGF-induced HUVEC cell proliferation, CellTiter Glo; format: cell-based; details: Homo sapiens, 20 ng/ml VEGF, 72 hours
Text: In this experiment, human umbilical vein endothelial cells (HUVEC, Lonza) were used. HUVEC cells are primary cells isolated from umbilical veins. This cell line is a model system to study the functions of endothelial cells. Endothelial cell proliferation in response to VEGF is crucial to the pathological angiogenesis associated with conditions such as tumor development and ocular neovascular diseases.
In this assay, a luciferase bioluminescence assay (CellTiter GLU™, Promega) is used to determine the inhibitory activity of the compounds against VEGF-induced HUVEC cell proliferation and viability. CellTiter GLO™ is a homogeneous method for quantifying the count of viable cells in culture based on ATP, an indicator of metabolically active cells. In this assay, the compound was incubated with HUVEC cells for 72 hours, and then the inhibitory activity of the resulting compound against VEGF-induced HUVEC cell proliferation was measured on the En Vision plate reader.
With the RPMI-1640 medium (plus 5% FBS, 1% Penicillin-Streptomycin) used for the HUVEC cell proliferation experiment, add a cell suspension to a 96-well plate at 100 μl per well, i.e., 4000 HUVEC cells/well, and incubate them overnight in a 5% CO2 incubator at 37° C. (serum starvation). After 24 hours, add 96 μl of the experimental medium to the cell wells, and then add 2 μl of the compound to the cell wells; and after 1 hour following the addition of the compound, add 2 μl of 2 μg/ml VEGF to the cell wells. Add 0.1% DMSO and 20 ng/ml VEGF to cell wells to serve as high-reading control wells. Take cell-free wells with only medium as low-reading control wells. […] After 72 hours of incubation of the cell plate in the incubator, hold the cell plate to be tested at room temperature and discard 100 μl of medium per well. Add 100 μl of CTG reagent (CellTiter Glo kit) per well, oscillate the cell plate in a fast oscillator for 3 minutes, and keep the cell plate at room temperature in the dark for 30 minutes. Read the chemiluminescence signal value with the Envision instrument.
X indicates the log value of compound concentration, Y indicates the inhibition rate (% inhibition), Top indicates the readout of the high-reading control well.

T3 sequence (Q02763 23-1124): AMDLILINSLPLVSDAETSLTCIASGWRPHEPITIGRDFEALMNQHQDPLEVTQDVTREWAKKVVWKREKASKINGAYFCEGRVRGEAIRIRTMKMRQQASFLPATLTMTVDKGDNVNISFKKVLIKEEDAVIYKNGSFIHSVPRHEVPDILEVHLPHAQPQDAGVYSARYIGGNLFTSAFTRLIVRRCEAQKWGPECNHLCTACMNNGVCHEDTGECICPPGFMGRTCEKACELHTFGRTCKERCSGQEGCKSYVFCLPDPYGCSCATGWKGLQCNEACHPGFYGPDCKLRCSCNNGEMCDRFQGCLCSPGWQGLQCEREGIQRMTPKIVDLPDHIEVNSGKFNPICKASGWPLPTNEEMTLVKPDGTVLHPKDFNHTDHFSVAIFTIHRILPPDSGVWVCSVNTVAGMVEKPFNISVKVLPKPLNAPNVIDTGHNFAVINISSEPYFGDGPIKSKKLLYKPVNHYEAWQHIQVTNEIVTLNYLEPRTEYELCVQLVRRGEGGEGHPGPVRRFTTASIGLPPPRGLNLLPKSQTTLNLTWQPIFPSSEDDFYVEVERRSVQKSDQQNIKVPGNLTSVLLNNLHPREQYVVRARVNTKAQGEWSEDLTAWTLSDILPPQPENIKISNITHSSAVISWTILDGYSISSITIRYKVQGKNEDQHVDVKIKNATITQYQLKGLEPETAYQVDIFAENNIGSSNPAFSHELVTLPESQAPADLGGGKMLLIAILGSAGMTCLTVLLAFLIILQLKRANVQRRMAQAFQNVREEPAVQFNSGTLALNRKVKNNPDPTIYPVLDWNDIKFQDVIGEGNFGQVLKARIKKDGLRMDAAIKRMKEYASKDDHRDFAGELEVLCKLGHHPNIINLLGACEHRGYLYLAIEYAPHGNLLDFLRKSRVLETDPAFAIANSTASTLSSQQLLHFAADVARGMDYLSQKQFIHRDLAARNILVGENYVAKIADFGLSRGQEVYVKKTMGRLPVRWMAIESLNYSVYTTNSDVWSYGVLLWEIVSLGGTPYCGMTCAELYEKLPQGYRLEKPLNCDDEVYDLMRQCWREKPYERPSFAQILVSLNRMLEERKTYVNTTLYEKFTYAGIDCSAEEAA
T1 sequence (P17948 27-1338): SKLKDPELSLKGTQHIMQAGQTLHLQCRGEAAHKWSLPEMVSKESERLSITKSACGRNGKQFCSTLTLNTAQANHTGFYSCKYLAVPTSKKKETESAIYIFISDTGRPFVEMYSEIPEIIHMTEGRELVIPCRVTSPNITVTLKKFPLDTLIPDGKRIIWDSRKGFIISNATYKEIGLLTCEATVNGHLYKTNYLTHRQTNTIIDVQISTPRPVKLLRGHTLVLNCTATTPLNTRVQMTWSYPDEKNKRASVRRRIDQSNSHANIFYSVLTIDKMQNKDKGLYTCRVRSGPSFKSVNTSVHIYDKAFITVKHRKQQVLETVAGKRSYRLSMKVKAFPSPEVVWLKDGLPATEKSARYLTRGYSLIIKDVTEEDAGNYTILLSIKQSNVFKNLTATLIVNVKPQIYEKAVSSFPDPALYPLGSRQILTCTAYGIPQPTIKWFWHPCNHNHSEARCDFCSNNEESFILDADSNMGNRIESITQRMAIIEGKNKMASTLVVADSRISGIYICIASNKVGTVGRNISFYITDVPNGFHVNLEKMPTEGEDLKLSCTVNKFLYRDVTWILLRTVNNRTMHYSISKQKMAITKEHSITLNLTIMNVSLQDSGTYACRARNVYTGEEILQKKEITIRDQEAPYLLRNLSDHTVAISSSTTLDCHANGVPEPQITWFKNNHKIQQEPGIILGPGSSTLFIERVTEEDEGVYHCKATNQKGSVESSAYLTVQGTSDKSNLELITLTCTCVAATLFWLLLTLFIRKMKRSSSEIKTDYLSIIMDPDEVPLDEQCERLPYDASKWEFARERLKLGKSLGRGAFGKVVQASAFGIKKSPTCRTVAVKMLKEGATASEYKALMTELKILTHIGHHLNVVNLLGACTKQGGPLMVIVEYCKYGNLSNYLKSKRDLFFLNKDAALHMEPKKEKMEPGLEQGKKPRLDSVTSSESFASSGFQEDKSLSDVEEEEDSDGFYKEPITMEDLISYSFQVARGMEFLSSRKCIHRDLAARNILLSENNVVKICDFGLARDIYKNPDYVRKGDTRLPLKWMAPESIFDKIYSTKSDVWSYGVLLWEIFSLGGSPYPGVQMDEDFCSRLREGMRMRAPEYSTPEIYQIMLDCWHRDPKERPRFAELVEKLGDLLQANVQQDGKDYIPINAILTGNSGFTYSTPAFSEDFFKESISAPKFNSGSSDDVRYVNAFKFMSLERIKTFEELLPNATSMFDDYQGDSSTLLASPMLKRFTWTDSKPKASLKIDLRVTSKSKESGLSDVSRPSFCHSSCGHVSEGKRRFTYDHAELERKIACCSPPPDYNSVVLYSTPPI
T4 sequence (P00533 669-1210 limits assumed): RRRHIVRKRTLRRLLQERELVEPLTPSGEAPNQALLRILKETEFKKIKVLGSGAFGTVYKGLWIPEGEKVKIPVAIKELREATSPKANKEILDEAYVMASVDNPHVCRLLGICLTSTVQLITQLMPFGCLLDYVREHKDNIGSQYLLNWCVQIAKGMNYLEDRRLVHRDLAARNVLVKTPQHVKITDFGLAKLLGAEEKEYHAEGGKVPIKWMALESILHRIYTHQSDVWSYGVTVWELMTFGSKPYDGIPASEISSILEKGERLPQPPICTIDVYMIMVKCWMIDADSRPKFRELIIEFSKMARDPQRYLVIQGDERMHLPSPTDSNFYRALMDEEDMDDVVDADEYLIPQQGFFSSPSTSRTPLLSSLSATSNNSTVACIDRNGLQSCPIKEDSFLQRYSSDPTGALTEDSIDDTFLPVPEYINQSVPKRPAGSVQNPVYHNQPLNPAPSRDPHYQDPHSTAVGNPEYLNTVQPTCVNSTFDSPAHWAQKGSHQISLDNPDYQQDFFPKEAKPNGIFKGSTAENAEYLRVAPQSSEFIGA

SMILES: CN1CCN(CCCNC(=O)Nc2snc(OCc3ccc(F)c(C(=O)NC4CC4)c3)c2C(N)=O)CC1 [Compound T078, 3-[[3-(cyclopropylcarbamoyl)-4-fluoro-phenyl]methoxy]-5-[3-(4-methylpiperazin-1-yl)propylcarbamoylamino]isothiazole-4-carboxamide]
- IC50 [1]: 5.72 nM
- IC50 [2]: 16.8 nM
- IC50 [3]: 4060 nM
- IC50 [4]: 16100 nM
- solubility at 8 h [5]: 800 µg/mL (≈ 1500 µM)
- fraction unbound at 2 h, 2 μM [6]: 0.0241
- IC50 [7]: 2.09 nM
- IC50 [8]: 56.5 nM

SMILES: CN1CC[C@H](CCNC(=O)Nc2snc(OCc3cc4c(cc3F)CCO4)c2C(N)=O)C1 [Compound T095, 3-[(5-fluoro-2,3-dihydrobenzofuran-6-yl)methoxy]-5-[2-[(3S)-1-methylpyrrolidin-3-yl]ethylcarbamoylamino] isothiazole-4-carboxamide]
- IC50 [4]: 11400 nM
- IC50 [9]: 55.8 nM
- fraction unbound at 2 h, 2 μM [6]: 0.0469
- IC50 [7]: 4.7 nM
- IC50 [8]: 93 nM

SMILES: NC(=O)c1c(OCc2cc(C(=O)NC3CC3)ccc2F)nsc1NC(=O)NCCCN1CCCC1 [Compound T098, 3-((5-(cyclopropylcarbamoyl)-2-fluorobenzyl)oxy)-5-(3-(3-(pyrrolidin-1-yl)propyl)ureido)isothiazole-4-carboxamide]
- IC50 [3]: 4910 nM
- IC50 [4]: 16500 nM
- fraction unbound at 2 h, 2 μM [6]: 0.0666
- IC50 [7]: 1.56 nM
- IC50 [8]: 132 nM

SMILES: NC(=O)c1c(OCc2cc(C(=O)NC3CC3)c(F)cc2F)nsc1NC(=O)NCCCCN1CCCC1 [Compound T128, 3-[[5-(cyclopropylcarbamoyl)-2,4-difluoro-phenyl]methoxy]-5-(4-pyrrolidin-1-ylbutylcarbamoylamino)isothiazole-4-carboxamide]
- IC50 [3]: 1180 nM
- IC50 [7]: 1.2 nM
- IC50 [8]: 4.9 nM

SMILES: NC(=O)c1c(OCc2c(F)cc3c(c2F)OCC3)nsc1NC(=O)NCCCCN1CCCC1 [Compound T129, 3-[(5,7-difluoro-2,3-dihydrobenzofuran-6-yl)methoxy]-5-(4-pyrrolidin-1-ylbutylcarbamoylamino)isothiazole-4-carboxamide]
- IC50 [4]: 15600 nM
- fraction unbound at 2 h, 2 μM [6]: 0.0889
- IC50 [7]: 11.9 nM
- IC50 [8]: 71 nM

SMILES: COc1ccc(F)c(COc2nsc(NC(=O)NCCCCN3CCCCC3)c2C(N)=O)c1F [Compound T131, 3-[(2,6-difluoro-3-methoxy-phenyl)methoxy]-5-[4-(1-piperidyl)butylcarbamoylamino]isothiazole-4-carboxamide]
- IC50 [4]: 15000 nM
- solubility at 8 h [5]: 278 µg/mL (≈ 559 µM)
- fraction unbound at 2 h, 2 μM [6]: 0.0629
- IC50 [7]: 17.4 nM
- IC50 [8]: 19 nM

SMILES: NC(=O)c1c(OCc2c(F)cc3c(c2F)OCC3)nsc1NC(=O)NCCCCN1CC[C@H](O)C1 [Compound T134, 3-[(5,7-difluoro-2,3-dihydrobenzofuran-6-yl)methoxy]-5-[4-[(3S)-3-hydroxypyrrolidin-1-yl]butylcarbamoylamino]isothiazole-4-carboxamide]
- IC50 [4]: 20600 nM
- fraction unbound at 2 h, 2 μM [6]: 0.0401
- IC50 [7]: 6.6 nM
- IC50 [8]: 16 nM

SMILES: COc1cc(OC)c(F)c(COc2nsc(NC(=O)NCCC3CCN(C)CC3)c2C(N)=O)c1F [Compound T145, 3-[(2,6-difluoro-3,5-dimethoxy-phenyl)methoxy]-5-[2-(1-methyl-4-piperidyl)ethylcarbamoylamino]isothiazole-4-carboxamide]
- IC50 [4]: > 60000 nM
- fraction unbound at 2 h, 2 μM [6]: 0.0437
- IC50 [7]: 1.39 nM
- IC50 [8]: 2.2 nM

SMILES: CN1CCN(CCNC(=O)Nc2snc(OCc3ccc(F)c(C(=O)NC4CC4)c3)c2C(N)=O)CC1 [Compound T149, 3-[[3-(cyclopropylcarbamoyl)-4-fluoro-phenyl]methoxy]-5-[2-(4-methylpiperazin-1-yl)ethylcarbamoylamino]isothiazole-4-carboxamide]
- IC50 [1]: 2.39 nM
- IC50 [2]: 10 nM
- IC50 [4]: 12000 nM
- solubility at 8 h [5]: 1580 µg/mL (≈ 3040 µM)
- IC50 [7]: 2.35 nM
- IC50 [8]: 52.2 nM

SMILES: NC(=O)c1c(OCc2ccc(F)c(C(=O)NC3CC3)c2)nsc1NC(=O)NCCCCN1CCCC1 [Compound T151, 3-[[3-(cyclopropylcarbamoyl)-4-fluoro-phenyl]methoxy]-5-(4-pyrrolidin-1-ylbutylcarbamoylamino)isothiazole-4-carboxamide]
- IC50 [1]: 1.53 nM
- IC50 [2]: 3.91 nM
- IC50 [4]: 10700 nM
- solubility at 8 h [5]: 1340 µg/mL (≈ 2590 µM)
- IC50 [7]: 1.75 nM
- IC50 [8]: 68.4 nM
